Here are results for 24 compounds from patent publication US20150218141A1, “SUBSTITUTED CARBAMATE COMPOUNDS” (HOFFMANN-LA ROCHE INC, priority 2012, published 2015).

Usually IC50 stands for the concentration needed to halve the response being measured.

Each structure is given as a SMILES string. Where a name gives a salt, the structure may show the parent alone.

For the experiment, the target named is T1, hTRPA1 (Homo sapiens, UniProt O75762).
T1 construct: host or cells: CHO-K1 Tet-On, Clone 20 (Chinese Hamster Ovary cells, inducible expression)
T1 sequence (O75762 whole entry): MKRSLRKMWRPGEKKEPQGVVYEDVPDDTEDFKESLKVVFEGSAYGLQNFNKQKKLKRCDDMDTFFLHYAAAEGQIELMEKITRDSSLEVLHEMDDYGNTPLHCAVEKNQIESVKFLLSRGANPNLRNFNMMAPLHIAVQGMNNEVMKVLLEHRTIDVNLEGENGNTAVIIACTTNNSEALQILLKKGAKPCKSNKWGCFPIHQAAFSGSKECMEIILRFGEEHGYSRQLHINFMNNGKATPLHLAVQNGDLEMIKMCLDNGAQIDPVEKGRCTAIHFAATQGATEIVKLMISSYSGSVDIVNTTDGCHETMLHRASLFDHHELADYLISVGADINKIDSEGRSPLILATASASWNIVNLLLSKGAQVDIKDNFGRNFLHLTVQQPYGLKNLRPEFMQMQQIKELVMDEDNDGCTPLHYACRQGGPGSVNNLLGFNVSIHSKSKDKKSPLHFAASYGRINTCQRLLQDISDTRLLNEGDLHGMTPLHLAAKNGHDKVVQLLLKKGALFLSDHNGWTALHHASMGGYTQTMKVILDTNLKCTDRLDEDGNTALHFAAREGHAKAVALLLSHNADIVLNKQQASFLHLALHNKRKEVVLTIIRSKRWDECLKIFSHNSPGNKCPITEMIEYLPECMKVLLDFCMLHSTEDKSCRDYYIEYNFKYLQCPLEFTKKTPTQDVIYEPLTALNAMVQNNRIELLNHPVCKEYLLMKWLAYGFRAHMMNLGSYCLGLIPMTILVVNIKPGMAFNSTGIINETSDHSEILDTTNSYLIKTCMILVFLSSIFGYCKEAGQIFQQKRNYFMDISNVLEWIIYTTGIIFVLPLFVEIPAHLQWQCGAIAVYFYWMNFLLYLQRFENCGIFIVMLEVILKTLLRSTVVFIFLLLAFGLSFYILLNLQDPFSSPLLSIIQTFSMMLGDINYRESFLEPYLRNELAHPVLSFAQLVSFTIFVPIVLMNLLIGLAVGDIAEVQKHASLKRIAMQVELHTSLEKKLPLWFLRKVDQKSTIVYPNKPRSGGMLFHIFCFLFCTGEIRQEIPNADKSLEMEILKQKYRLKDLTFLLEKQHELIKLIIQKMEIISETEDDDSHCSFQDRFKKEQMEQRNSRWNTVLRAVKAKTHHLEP
The experiment can be described thus: IC50 determination, dose response calcium flux (FLIPR) assay, ChanTest hTRPA1-CHO stably transfected cell line. Type of experiment: cell-based. Conditions: CHO-K1 Tet-On hTRPA1 cells, 30' preincubation, agonist cinnamaldehyde final 100 uM. On the procedure:
IC50 Determination of Exemplified Compounds Dose Response Assay: ChanTest hTRPA1-CHO Stably Transfected Cell Line
CHO-K1 Tet-On_HOMSA_TRPA1_Clone—20
Growth Media for CHO-K1 Tet-On_HOMSA_TRPA1_Clone—20 • Ham's F-12 with 10% tetracycline-free FBS • 1× penicillin-streptomycin • 1× glutamax • 0.01 mg/ml Blasticidin • 0.40 mg/ml Zeocin • The cell line doubling rate was ˜15 hours. […] Experiments were run at 24 hours post induction.
Plating Conditions CHOK1/TRPA1 Cells: • Harvested cells with 0.025% trypsin/EDTA. • Resuspended cells in growth media without selection antibiotics. • Measured cell density and diluted to 2.4×10^5 cells/ml in media containing 1 ug/ml Doxycycline Plate 25 ul/well into 384 well black/clear tissue culture-treated plates. • Incubated overnight at 37° C.
Reagents: • Replacement Buffer: Hank's Balanced Salt Solution, 20 mM HEPES along with 0.005% BSA and 2× Probenecid • Dye Loading Buffer: Cal-3 NW Calcium dye was prepared by dissolving the contents of one vial with […] Hank's Balanced Salt Solution containing 20 mM HEPES. • Control compounds for CHOK1/TRPA1 cells: AP-18, stock 10 mM, prepare 3.5× compound dilution in a Compound Buffer (HBSS/20 mM HEPES/0.005% BSA)—final concentration 10 uM.
Preparation of Cinnamaldehyde (Agonist Addition):
• Specific gravity=1.046 gm/cc • 1.32 gm/1.046 gm/cc=1.26 ml of stock • Add 1.74 ml DMSO=3.3 M stock • Working solution 4.5× (final 100 uM in Compound Buffer: HBSS/20 mM HEPES/0.005% BSA)
Compounds dilutions were prepared from 5 or 10 mM stock (100% DMSO): • Adjustments of volumes and concentrations were made at time of titration to reflect desired final assay concentrations. • Compounds were tested at either 20 μM three folds dilution 11 steps out or 30 μM two folds dilution 11 steps out. • 3 μl of diluted compound were transferred into Weidmann 384-well plate in duplicates side-by-side.
Compound plates were resuspended with 100 ul of HBSS/20 mM HEPES/0.005% BSA buffer (Compound Buffer):
Growth media was removed from the cell plates (20 ul) and 20 ul of the Replacement Buffer was added followed by addition of 25 ul of diluted dye. All three steps were performed using a Plate Washer BioTek 407. The plates were then incubated for 30′ at RT.
After incubation, both the cell and compound plates were brought to the FLIPR and 20 ul of the diluted compounds/antagonist/bk were transferred to the cell plates by the FLIPR. Plates were then incubated for 30′ at room temperature. After 30′ incubation, plates were returned to the FLIPR and 20 ul of 4.5× Cinnamaldehyde was added to the cell plates. During the compound addition as well as agonist addition, fluorescence readings were taken simultaneously from all 384 wells of the cell plate every 1.5 seconds. Five readings were taken to establish a stable baseline, then 20 ul of sample was rapidly (30 ul/sec) and simultaneously added to each well of the cell plate. The fluorescence was continuously monitored before, during and after sample/agonist addition for a total elapsed time of 100 seconds (compound addition) and 120 seconds (agonist addition). Responses (increase in peak fluorescence) in each well following agonist addition was determined. The initial fluorescence reading from each well, prior to ligand stimulation, was used a zero baseline value for the data from that well.
For orientation: Calcium assays in cells follow changes in intracellular calcium, usually with a dye or a luminescent sensor.
Regarding `COc1ccc(CC2CCCN(C[C@H](OC(=O)Nc3ccc(Cl)cc3)C(F)(F)F)C2)cc1` (stereo partly drawn) [Example 20, (4-Chlorophenyl)-carbamic acid 2,2,2-trifluoro-1-[3-(4-methoxybenzyl)-piperidin-1-ylmethyl]-ethyl ester], the IC50 was found to be 165 nM.

With `COc1cc(OC)cc(C2CCCN(C[C@H](OC(=O)Nc3ccc(Cl)cc3)C(F)(F)F)C2)c1` (stereo partly drawn) [Example 21, (4-Chlorophenyl)-carbamic acid (S)-1-[3-(3,5-dimethoxyphenyl)-piperidin-1-ylmethyl]-2,2,2-trifluoroethyl ester], the half-inhibitory concentration (IC50) came to 203 nM. Next, `O=C(Nc1ccc(Cl)cc1)O[C@@H](CN1CCC[C@H](c2cc(C(F)(F)F)cc(C(F)(F)F)c2)C1)C(F)(F)F` [Example 23, (4-Chlorophenyl)-carbamic acid (S)-1-[(R)-3-(3,5-bis-trifluoromethylphenyl)-piperidin-1ylmethyl]-2,2,2-trifluoroethyl ester]: 21.5 nM; `O=C(Nc1ccc(Cl)cc1)OC(CN1CCCC(c2ccccc2)CC1)C(F)(F)F` (stereo not drawn) [Example 27, (4-Chlorophenyl)-carbamic acid 2,2,2-trifluoro-1-(4-phenyl-azepan-1-ylmethyl)-ethyl ester]: 2260 nM. In the case of `O=C(Nc1ccc(Cl)cc1)O[C@@H](CN1CCCC(c2cccc(C(F)(F)F)c2)C1)C(F)(F)F` (stereo partly drawn) [Example 29, (4-Chlorophenyl)-carbamic acid (S)-2,2,2-trifluoro-1-[3-(3-trifluoromethylphenyl)-piperidin-1-ylmethyl]-ethyl ester hydrochloride], the IC50 was found to be 35.4 nM. On to `COc1cc(C2CCCN(C[C@H](OC(=O)Nc3ccc(Cl)cc3)C(F)(F)F)C2)ccc1F` (stereo partly drawn) [Example 31, (4-Chlorophenyl)-carbamic acid (S)-2,2,2-trifluoro-1-[3-(4-fluoro-3-methoxyphenyl)-piperidin-1-ylmethyl]-ethyl ester hydrochloride], for which the IC50 stood at 168 nM.

With `COc1cc([C@H]2CCCN(C[C@H](OC(=O)Nc3ccc(Cl)cc3)C(F)(F)F)C2)ccc1F` [Example 32, (4-Chloro-phenyl)-carbamic acid (S)-2,2,2-trifluoro-1-[(R)-3-(4-fluoro-3-methoxy-phenyl)-piperidin-1-ylmethyl]-ethyl ester hydrochloride], the IC50 came to 113 nM. For `O=C(Nc1ccc(Cl)cc1)O[C@@H](CN1CCC(F)(F)CC1)C(F)(F)F` [Example 33, (4-Chlorophenyl)-carbamic acid (S)-1-(4,4-difluoropiperidin-1-ylmethyl)-2,2,2-trifluoroethyl ester hydrochloride] the value was 78.3 nM; for `COCCOc1cc(C2CCCN(C[C@H](OC(=O)Nc3ccc(Cl)cc3)C(F)(F)F)C2)ccc1F` (stereo partly drawn) [Example 34, (4-Chlorophenyl)-carbamic acid (S)-2,2,2-trifluoro-1-{3-[4-fluoro-3-(2-methoxyethoxy)-phenyl]-piperidin-1-ylmethyl}-ethyl ester], 339 nM; for `COCCOc1cc([C@H]2CCCN(C[C@H](OC(=O)Nc3ccc(Cl)cc3)C(F)(F)F)C2)ccc1F` [Example 35, (4-Chlorophenyl)-carbamic acid (S)-2,2,2-trifluoro-1-{(R)-3-[4-fluoro-3-(2-methoxyethoxy)-phenyl]-piperidin-1-ylmethyl}-ethyl ester hydrochloride], 334 nM. Next, `O=C(Nc1ccc(Cl)cc1)OC(CN1CCCC(c2ccccc2)C1)C(F)(F)F` (stereo not drawn) [Example 36, (4-Chlorophenyl)-carbamic acid 2,2,2-trifluoro-1-(3-phenylpiperidin-1-ylmethyl)-ethyl ester hydrochloride]: 625 nM; `O=C(Nc1ccc(Cl)cc1)OC(CN1CCCC(c2ccc(Cl)cc2)C1)C(F)(F)F` (stereo not drawn) [Example 37, (4-Chlorophenyl)-carbamic acid 1-[3-(4-chlorophenyl)-piperidin-1-ylmethyl]-2,2,2-trifluoro ethyl ester]: 522 nM. For `COc1ccc(C2CCCN(C[C@H](OC(=O)Nc3ccc(Cl)cc3)C(F)(F)F)C2)cc1` (stereo partly drawn) [Example 38, (4-Chlorophenyl)-carbamic acid (S)-2,2,2-trifluoro-1-[3-(4-methoxyphenyl)-piperidin-1-ylmethyl]-ethyl ester] the value was 622 nM; for `O=C(Nc1ccc(Cl)cc1)O[C@@H](CN1CCCC(C(=O)c2ccccc2)C1)C(F)(F)F` (stereo partly drawn) [Example 39, (4-Chlorophenyl)-carbamic acid (S)-1-(3-benzoylpiperidin-1-ylmethyl)-2,2,2-trifluoroethyl ester hydrochloride], 865 nM; for `O=C(Nc1ccc(Cl)cc1)O[C@@H](CN1CCCC(Oc2ccccc2)C1)C(F)(F)F` (stereo partly drawn) [Example 40, (4-Chlorophenyl)-carbamic acid (S)-2,2,2-trifluoro-1-(3-phenoxypiperidin-1-ylmethyl)-ethyl ester hydrochloride], 191 nM. Turning to `O=C(Nc1ccc(Cl)cc1)O[C@@H](CN1CCCC(c2cccc(F)c2)C1)C(F)(F)F` (stereo partly drawn) [Example 41, (4-Chlorophenyl)-carbamic acid (S)-2,2,2-trifluoro-1-[3-(3-fluorophenyl)-piperidin-1-ylmethyl]-ethyl ester hydrochloride], the 50% inhibitory concentration (IC50) was 320 nM. Turning to `O=C(Nc1ccc(Cl)cc1)O[C@@H](CN1CCCC(c2ccc(F)cc2)C1)C(F)(F)F` (stereo partly drawn) [Example 42, (4-Chlorophenyl)-carbamic acid (S)-2,2,2-trifluoro-1-[3-(4-fluorophenyl)-piperidin-1-ylmethyl]-ethyl ester hydrochloride], the concentration for half-maximal inhibition (IC50) amounted to 444 nM. On to `CCOc1cccc(C2CCCN(C[C@H](OC(=O)Nc3ccc(Cl)cc3)C(F)(F)F)C2)c1` (stereo partly drawn) [Example 43, (4-Chlorophenyl)-carbamic acid (S)-1-[3-(3-ethoxyphenyl)-piperidin-1-ylmethyl]-2,2,2-trifluoroethyl ester hydrochloride], for which the IC50 was found to be 298 nM. For `O=C(Nc1ccc(Cl)cc1)O[C@@H](CN1CCCC(Sc2ccccc2)C1)C(F)(F)F` (stereo partly drawn) [Example 44, (4-Chlorophenyl)-carbamic acid (S)-2,2,2-trifluoro-1-(3-phenylsulfanyl-piperidin-1-ylmethyl)-ethyl ester hydrochloride] the value was 172 nM. For `O=C(Nc1ccc(Cl)cc1)O[C@@H](CN1CCCC(Oc2ccc(Cl)cc2)C1)C(F)(F)F` (stereo partly drawn) [Example 45, (4-Chlorophenyl)-carbamic acid (S)-1-[3-(4-chlorophenoxy)-piperidin-1-ylmethyl]-2,2,2-trifluoroethyl ester hydrochloride] the value was 139 nM; for `N#Cc1ccc(OC2CCCN(C[C@H](OC(=O)Nc3ccc(Cl)cc3)C(F)(F)F)C2)cc1` (stereo partly drawn) [Example 46, (4-Chlorophenyl)-carbamic acid (S)-1-[3-(4-cyanophenoxy)-piperidin-1-ylmethyl]-2,2,2-trifluoroethyl ester hydrochloride], 411 nM. For `N#Cc1cccc(OC2CCCN(C[C@H](OC(=O)Nc3ccc(Cl)cc3)C(F)(F)F)C2)c1` (stereo partly drawn) [Example 47, (4-Chlorophenyl)-carbamic acid (S)-1-[3-(3-cyanophenoxy)-piperidin-1-ylmethyl]-2,2,2-trifluoroethyl ester hydrochloride] the value was 219 nM. With `O=C(Nc1ccc(Cl)cc1)O[C@@H](CN1CCCC(Oc2ccc(F)cc2)C1)C(F)(F)F` (stereo partly drawn) [Example 48, (4-Chlorophenyl)-carbamic acid (S)-1-[3-(4-fluorophenoxy)-piperidin-1-ylmethyl]-2,2,2-trifluoroethyl ester hydrochloride], the 50% inhibitory concentration (IC50) worked out at 147 nM. For `COc1cccc(OC2CCCN(C[C@H](OC(=O)Nc3ccc(Cl)cc3)C(F)(F)F)C2)c1` (stereo partly drawn) [Example 49, (4-Chlorophenyl)-carbamic acid (S)-1-[3-(3-methoxyphenoxy)-piperidin-1-ylmethyl]-2,2,2-trifluoroethyl ester hydrochloride] the value was 408 nM.
